Target: T1, ApKSL2 (Andrographis paniculata, UniProt A0A3G1S3U0)
T1 sequence (A0A3G1S3U0 41-814): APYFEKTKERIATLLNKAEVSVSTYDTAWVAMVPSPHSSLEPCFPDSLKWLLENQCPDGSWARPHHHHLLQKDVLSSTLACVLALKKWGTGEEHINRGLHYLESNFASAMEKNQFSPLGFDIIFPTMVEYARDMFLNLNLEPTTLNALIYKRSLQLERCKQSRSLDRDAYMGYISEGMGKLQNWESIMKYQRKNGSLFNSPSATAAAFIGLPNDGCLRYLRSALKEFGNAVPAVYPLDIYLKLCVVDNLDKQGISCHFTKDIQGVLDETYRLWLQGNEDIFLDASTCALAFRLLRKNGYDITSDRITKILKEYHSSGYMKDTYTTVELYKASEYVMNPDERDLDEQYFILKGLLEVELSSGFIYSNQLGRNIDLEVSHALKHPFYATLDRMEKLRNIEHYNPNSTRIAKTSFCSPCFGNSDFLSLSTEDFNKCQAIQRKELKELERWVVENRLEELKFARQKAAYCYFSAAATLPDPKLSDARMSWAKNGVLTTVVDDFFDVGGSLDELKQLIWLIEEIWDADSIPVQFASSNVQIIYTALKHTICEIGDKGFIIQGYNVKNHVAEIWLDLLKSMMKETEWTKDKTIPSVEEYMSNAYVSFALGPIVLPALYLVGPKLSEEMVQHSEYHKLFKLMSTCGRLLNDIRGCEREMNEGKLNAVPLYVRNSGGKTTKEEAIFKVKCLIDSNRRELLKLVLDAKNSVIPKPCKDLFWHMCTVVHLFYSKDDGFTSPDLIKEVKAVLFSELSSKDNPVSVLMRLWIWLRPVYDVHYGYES
Assay: co-expression in E. coli, GC-MS of products
Format: cell-based
Conditions: E. coli engineered to produce ent-CPP; product ent-kaurene

C=C1CC[C@@H]2C(C)(C)CCC[C@@]2(C)[C@@H]1CC/C(C)=C/COP(=O)(O)OP(=O)(O)O [ent-CPP]
co-expression in E. coli, GC-MS of products: ApKSL2 acted on both ent-CPP, producing ent-kaurene

— publication PMC7252214 (The Plant journal : for cell and molecular biology, 2019)
